Measured values published in ChEMBL document CHEMBL1153322, “Identification of novel and orally active spiroindoline NPY Y5 receptor antagonists” (Bioorg Med Chem Lett, 2009).
Activity calls are given as the source filed them. No cut-off for these calls is given here.

Columns and labels:
[1] = target: T1, Neuropeptide Y receptor type 5 (Homo sapiens, UniProt Q15761); test: Displacement of [125I]PYY from human recombinant Y5 receptor expressed in mouse LMtk cells; format: cell-based
T1 sequence (Q15761 whole entry): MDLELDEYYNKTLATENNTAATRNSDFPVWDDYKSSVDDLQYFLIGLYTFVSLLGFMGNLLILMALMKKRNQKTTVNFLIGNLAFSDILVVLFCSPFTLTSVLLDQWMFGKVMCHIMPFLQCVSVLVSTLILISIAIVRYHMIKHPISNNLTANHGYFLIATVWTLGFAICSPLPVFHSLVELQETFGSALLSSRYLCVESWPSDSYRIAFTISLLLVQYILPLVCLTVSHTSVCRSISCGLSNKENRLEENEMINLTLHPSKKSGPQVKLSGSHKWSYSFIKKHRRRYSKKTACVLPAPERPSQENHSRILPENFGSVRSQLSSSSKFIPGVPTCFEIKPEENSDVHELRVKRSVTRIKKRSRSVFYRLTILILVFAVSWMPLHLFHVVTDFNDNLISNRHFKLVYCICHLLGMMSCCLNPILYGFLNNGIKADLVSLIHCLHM

[2] = Ratio of drug level in brain to plasma of rat at 3 mg/kg, iv after 10 mins; format: ADME, organism-based; design: dose 3 mg/kg, route intravenous; settings: brain and plasma, read-out: BPR
[3] = Oral bioavailability in rat at 10 mg/kg; format: ADME, organism-based; settings: in vivo
[4] = Ratio of drug level in brain to plasma of rat at 3 mg/kg, iv after 60 mins; format: ADME, organism-based; design: dose 3 mg/kg, route intravenous; settings: brain and plasma, read-out: BPR
[5] = Solubility at pH 5; format: physicochemical; settings: buffer
[6] = Solubility at pH 3; format: physicochemical; settings: buffer
[7] = Lipophilicity, log D at pH 7.4; format: physicochemical; settings: buffer
[8] = Solubility at pH 7; format: physicochemical; settings: buffer
[9] = Solubility at pH 1; format: physicochemical; settings: buffer
[10] = tested on: Rattus norvegicus; test: Inhibition of bovine-pancreatic polypeptide-induced food intake in po dosed Sprague-Dawley rat assessed as minimum effective dose measured for 2 hrs; format: functional; settings: read-out: MED
[11] = tested on: Rattus norvegicus; test: Toxicity in Sprague-Dawley rat assessed as sedation at 30 mg/kg, po; format: organism-based; design: dose 30 mg/kg, route oral; settings: in vivo
[12] = tested on: Rattus norvegicus; test: Inhibition of bovine-pancreatic polypeptide-induced food intake in Sprague-Dawley rat at 30 mg/kg, po measured for 2 hrs; format: functional, organism-based; design: dose 30 mg/kg

| Compound | IC50 [1] [nM] | bioavailability [3] [%] | other results |
| --- | --- | --- | --- |
| CS(=O)(=O)N1CC2(CCN(C(=O)Nc3ccccc3-c3ccccc3)CC2)c2ccccc21 | 430 | – | – |
| NS(=O)(=O)N1CC2(CCN(C(=O)Nc3ccc(Cl)c(Cl)c3)CC2)c2ccccc21 | 4 | – | – |
| O=C(Nc1cc(-c2ccc(Cl)cc2)n[nH]1)C1Cc2ccccc2C1 | 59 | – | – |
| CC(=O)c1ccc(NC(=O)N2CCC3(CC2)CN(S(N)(=O)=O)c2ccccc23)cc1 | 2 | – | – |
| CS(=O)(=O)N1CC2(CCN(C(=O)Nc3ccc(Cl)c(Cl)c3)CC2)c2ccccc21 | 0.2 | – | – |
| CS(=O)(=O)N1CC2(CCN(C(=O)Nc3ccc(-c4ccccc4)nn3)CC2)c2ccccc21 | 3 | 20 | Kp at 10 min [2]: 0.42; Kp at 1 h [4]: 0.32 |
| CS(=O)(=O)N1CC2(CCN(C(=O)Nc3ccc(-c4ccccc4)cc3)CC2)c2ccccc21 | 0.85 | 0 | solubility [5]: < 0.01 µg/mL; Kp at 10 min [2]: 1.3; solubility [6]: < 0.01 µg/mL; logD [7]: > 4; Kp at 1 h [4]: 1.93; solubility [8]: < 0.01 µg/mL; solubility [9]: < 0.01 µg/mL |
| CS(=O)(=O)N1CC2(CCN(C(=O)Nc3ccc(-c4cccnc4)cc3)CC2)c2ccccc21 | 2.1 | 47 | Kp at 10 min [2]: 0.13; Kp at 1 h [4]: 0.11 |
| CS(=O)(=O)N1CC2(CCN(C(=O)Nc3ccc(-c4ccccc4)nc3)CC2)c2ccccc21 | 0.82 | 0 | – |
| CS(=O)(=O)N1CC2(CCN(C(=O)Nc3ccc(-c4ccncc4)cc3)CC2)c2ccccc21 | 4.1 | 53 | minimal effective dose [10]: 10 mg/kg; Kp at 10 min [2]: 0.12; Activity [11]: Non-toxic; Kp at 1 h [4]: 0.12; Activity [12]: Active |
| CS(=O)(=O)N1CC2(CCN(C(=O)Nc3cccc(-c4ccncc4)c3)CC2)c2ccccc21 | 23 | – | – |
| CS(=O)(=O)N1CC2(CCN(C(=O)Nc3cnc(-c4ccccc4)nc3)CC2)c2ccccc21 | 0.86 | 0 | – |
| CCCCc1ccc(NC(=O)N2CCC3(CC2)CN(S(C)(=O)=O)c2ccccc23)cc1 | 1.2 | – | – |
| CS(=O)(=O)N1C[C@]2(CC[C@@H](C(=O)Nc3ccc(-c4ccccc4)cc3)CC2)c2ccccc21 | 200 | – | – |
| CS(=O)(=O)N1CC2(CCN(C(=O)Nc3cccc(-c4ccccc4)c3)CC2)c2ccccc21 | 1.3 | – | – |
| CS(=O)(=O)Nc1ccccc1N1CCN(C(=O)Nc2cc(-c3ccc(Cl)cc3)n[nH]2)CC1 | 1.4 | – | – |
| CS(=O)(=O)N1CC2(CCN(C(=O)Cc3ccc(-c4ccccc4)cc3)CC2)c2ccccc21 | 180 | – | – |
| CS(=O)(=O)N1CC2(CCN(C(=O)Nc3ncc(-c4ccccc4)cn3)CC2)c2ccccc21 | 0.57 | 24 | Kp at 10 min [2]: 0.14; Kp at 1 h [4]: 0.07 |
| CS(=O)(=O)N1CC2(CCN(C(=O)Nc3cnc(-c4ccccc4)cn3)CC2)c2ccccc21 | 0.97 | 0 | – |
| CS(=O)(=O)N1C[C@]2(CC[C@H](C(=O)Nc3ccc(-c4ccccc4)cc3)CC2)c2ccccc21 | 1.5 | – | – |
| CS(=O)(=O)N1CC2(CCN(C(=O)Nc3ccc(-c4ccccn4)cc3)CC2)c2ccccc21 | 3 | 12 | Kp at 10 min [2]: 0.23; Kp at 1 h [4]: 0.24 |
| CS(=O)(=O)N1CC2(CCN(C(=O)Nc3nccc(-c4ccccc4)n3)CC2)c2ccccc21 | 9.8 | – | – |
| NS(=O)(=O)N1CC2(CCN(C(=O)Nc3ccccc3Cl)CC2)c2ccccc21 | 5 | – | – |
| CS(=O)(=O)N1CC2(CCN(C(=O)Nc3ccnc(-c4ccccc4)n3)CC2)c2ccccc21 | 7.5 | – | – |
| NS(=O)(=O)N1CC2(CCN(C(=O)Nc3ccc(Oc4ccccc4)cc3)CC2)c2ccccc21 | 3 | – | – |
| CS(=O)(=O)N1CC2(CCN(C(=O)Nc3ccc(-c4ccccc4)cn3)CC2)c2ccccc21 | 0.96 | 0 | – |
